Test results published in patent US20150203924A1, “[…] FOR HERBICIDE RESISTANCE IN PLANTS” (PURDUE RESEARCH FOUNDATION, priority 2013, published 2015).

What was measured:
[1] = tested on: Ambrosia trifida L. (Giant ragweed); assay: 14C-glyphosate uptake and translocation; format: in vivo; details: two mature leaves treated with 14C-glyphosate
Excerpt: In the study, the treated leaf included two mature leaves treated with ^14C-glyphosate. Mobilized distribution includes untreated mature leaves, meristems and roots.

[2] = tested on: Ambrosia trifida L. (Giant ragweed); assay: H2O2 accumulation in glyphosate treated leaves by DAB staining; format: in vivo
Description: In an embodiment, the H2O2 presence is visually detected after 3,3′-diaminobenzidine (DAB) staining using procedures described by Thordal-Christensen et al., ([…]). […] At each harvested time, leaf discs are floated in a solution of DAB-Hydrochloric acid (HCl) (1 mg/ml) (Sigma, St. Louis, Mo.) in a beaker at room temperature and allowed to absorb the solution through the cut ends. After 3 hours of incubation, leaf discs are decolorized by boiling in 90% ethanol for ten minutes to remove chlorophyll, before visual examination. Brown precipitates form at sites of H2O2 accumulation and data collected will be by visual detection of H2O2 accumulation as noted by intensity of brown precipitates on treated leave discs. The hypersensitive reaction (HR) has been used as a visual marker of biotic interactions and induction of pathogen response (PR) genes (S) but this has been also shown in plant responses to abiotic stresses such as excess excitation energy (EEE) (Muhlenbock et al., 2008).

[3] = tested on: EPSPS; assay: EPSPS sensitivity to glyphosate challenge; format: biochemical, Ambrosia trifida
[4] = tested on: Ambrosia trifida L. (Giant ragweed); assay: Tissue specific (differential exposure) glyphosate treatment, translocation; details: uncovered portions sprayed with 0.7 kg ae/ha
[5] = tested on: Ambrosia trifida L. (Giant ragweed); assay: Foliar glyphosate treatment of whole plants: fresh weight and visual injury; format: in vivo
Excerpt: Significance (<0.05) between populations (within rates) is indicated by letters (a, b). […] Significance (<0.05) between rates (within populations) is indicated by letters (a, b, c).
Foliar application of herbicide solution was applied using a compressed-air bench top track sprayer at a pressure of 249 kPa and a volume of 187 L of spray solution ha-1. […] All plants were at the third node growth stage at the time of treatment.

[6] = tested on: Ambrosia trifida L. (Giant ragweed); assay: Chlorophyll fluorescence measurements / rapid necrosis of mature leaves after glyphosate treatment; format: in vivo; details: 1x field rate glyphosate
Description: To quantify early physiological reactions related to this resistance mechanism, a method was developed using chlorophyll fluorescence measurements to determine photosynthetic activity. […] Treatments at each time point consisted of glyphosate-resistant and glyphosate-sensitive A. trifida untreated and treated leaves.
In an embodiment, to measure fluorescence the maximum quantum efficiency of photosystem II (Fv/Fm) is determined using an Imaging-PAM fluorometer IMAG-MAX/GS with a mounted LED-Array Illumination Unit IMAG-MAX/L and CCD-Camera (Heinz Walz GmbH, 91090 Effeltrich, Germany) along with ImagingWin software. Briefly, dark acclimated plants are exposed to a short saturating light pulse to maximally reduce the QA pool and where fluorescence is increased to maximum values (Fm) and this is followed by a weak non-actinic modulated measuring light to determine the minimal level of fluorescence (F0) (Oxborough, 2004).

[7] = tested on: Ambrosia trifida L. (Giant ragweed); assay: 31P NMR imaging of glyphosate infiltrated leaves; format: in vivo
[8] = three weeks after treatment, 1x glyphosate field rate

Question: What does the source list for O=C(O)CNCP(=O)(O)O [glyphosate, N-(phosphonomethyl)glycine]?
Answer: absorbed glyphosate translocated, glyphosate resistant plants [1]: 28%; absorbed glyphosate translocated, glyphosate-sensitive plants [1]: 54%; H2O2 production, glyphosate sensitive leaves [2]: no H2O2 production; time to significant H2O2 accumulation, mature leaves of glyphosate-resistant plants [2]: ≤ 2 h; EPSPS sensitivity to glyphosate challenge, glyphosate-resistant vs glyphosate-sensitive plants [3]: no difference; translocation of glyphosate away from treated tissues, glyphosate-resistant plants [4]: did not translocate glyphosate; translocation of glyphosate away from treated tissues, glyphosate-sensitive plants [4]: glyphosate-sensitive plants did; visual plant injury of resistant plants compared to sensitive plants ([5]; 1x, 2x, 4x treatment levels, after twenty-one days): decreased visual injury compared to the sensitive plants; visual injury rating (% dead), resistant plants compared to sensitive plants ([5]; 3 weeks after treatment, n=63): much lower rating of % dead compared to the sensitive plants; plant response, glyphosate-resistant plant [5, 8]: recovered from the glyphosate treatment; plant response, glyphosate-sensitive plant [5, 8]: extremely decline; fresh weight of resistant plants compared to sensitive plants ([5]; whole plant tissue 21 days after treatment, 1x=0.7, 2x=1.4, 4x=2.8 kg ae ha-1): increased fresh weight at all treatment levels compared to the sensitive plants; time to rapid necrosis in mature leaves, glyphosate-resistant plants [6]: ≤ 12 h; time to rapid cell death, glyphosate-resistant plants [7]: ≤ 16 h; cell death, glyphosate-sensitive plants ([7]; within 16 hours): limited cell death
